Laboratory results from ChEMBL document CHEMBL4130458, “Oxidation of the Meroterpenoid (-)-Terreumol C from the Mushroom Tricholoma terreum: Discovery of Cytotoxic Analogues” (J Nat Prod, 2017).
Converted amounts (≈) assume the structure as drawn. The source made the active and inactive calls. No cut-off for these calls is given here.

Key:
KB 3-1 = test: Antiproliferative activity against human KB-3-1 cells after 5 days by WST-1 assay; type: functional, cell-based; settings: KB 3-1, 120 h
[1] = Antiproliferative activity against human FS4-LTM cells after 24 hrs by WST-1 assay; type: ADME, cell-based
Staphylococcus aureus [2] = test: Antimicrobial activity against methicillin-resistant Staphylococcus aureus isolate RKI 11-02670 after 18 hrs by serial dilution method; type: functional, organism-based; settings: isolate RKI 11-02670, 18 h
L929 = test: Antiproliferative activity against mouse L929 cells after 5 days by WST-1 assay; type: ADME, cell-based; settings: L929, 120 h
MCF7 = test: Antiproliferative activity against human MCF7 cells after 5 days by WST-1 assay; type: functional, cell-based; settings: MCF7, 120 h
Acinetobacter baumannii = test: Antimicrobial activity against Acinetobacter baumannii DSM 30007 up to 100 uM after 18 hrs by serial dilution method; type: functional, organism-based
Candida albicans = test: Antimicrobial activity against Candida albicans up to 100 uM after 18 hrs by serial dilution method; type: functional, organism-based
Staphylococcus aureus [3] = test: Antimicrobial activity against methicillin-resistant Staphylococcus aureus ICB 25701 up to 100 uM after 18 hrs by serial dilution method; type: functional, organism-based
Enterococcus faecium = test: Antimicrobial activity against Enterococcus faecium DSM 20477 up to 100 uM after 18 hrs by serial dilution method; type: functional, organism-based
Staphylococcus aureus [4] = test: Antimicrobial activity against methicillin-resistant Staphylococcus aureus DSM 11822 up to 100 uM after 18 hrs by serial dilution method; type: functional, organism-based
Staphylococcus aureus [5] = test: Antimicrobial activity against methicillin-resistant Staphylococcus aureus up to 100 uM after 18 hrs by serial dilution method; type: functional, organism-based
Staphylococcus aureus [6] = test: Antimicrobial activity against methicillin-resistant Staphylococcus aureus isolate RKI 11-02670 up to 100 uM after 18 hrs by serial dilution method; type: functional, organism-based
Escherichia coli = test: Antimicrobial activity against Escherichia coli DSM 1116 up to 100 uM after 18 hrs by serial dilution method; type: functional, organism-based
Pseudomonas aeruginosa = test: Antimicrobial activity against Pseudomonas aeruginosa PA7 DSM 24068 up to 100 uM after 18 hrs by serial dilution method; type: functional, organism-based
Klebsiella pneumoniae = test: Antimicrobial activity against Klebsiella pneumoniae DSM 11678 up to 100 uM after 18 hrs by serial dilution method; type: functional, organism-based
Staphylococcus aureus [7] = test: Growth promoting activity against methicillin-resistant Staphylococcus aureus at 50 uM after 18 hrs by serial dilution method; type: organism-based; settings: in vivo

SMILES	IC50 (KB 3-1) [µM]	IC50 [1] [µM]	EC50 (Staphylococcus aureus [2]) [µM]	MIC (Staphylococcus aureus [2]) [µg/mL]	IC50 (L929) [µM]	IC50 (MCF7) [µM]	Activity (Acinetobacter baumannii)	Activity (Candida albicans)	Activity (Staphylococcus aureus [3])	Activity (Enterococcus faecium)	Activity (Staphylococcus aureus [4])	Activity (Staphylococcus aureus [5])	Activity (Staphylococcus aureus [6])	Activity (Escherichia coli)	Activity (Pseudomonas aeruginosa)	Activity (Klebsiella pneumoniae)	Activity (Staphylococcus aureus [7]) [%]
COc1cc(O)c2c(c1O)C/C(CBr)=C\CC[C@@]1(C)O[C@@H]1C2=O	34	29	22	13 (≈ 33.9 µM)	10	32	–	–	–	–	–	–	–	–	–	–	–
COc1cc(O)c2c(c1O)C[C@]1(C)O[C@@](C)(CC[C@H]1O)[C@H](O)C2=O	100	> 100	–	–	> 100	100	inactive	inactive	inactive	inactive	inactive	inactive	inactive	inactive	inactive	inactive	–
C=C1Cc2c(O)c(OC)cc(O)c2C(=O)[C@H]2O[C@]2(C)CC[C@H]1Br	4.5	14	–	–	2.5	11	inactive	inactive	inactive	inactive	inactive	inactive	inactive	inactive	inactive	inactive	–
COc1cc(O)c2c(c1O)[C@@H](O)/C(C)=C\CC[C@@]1(C)O[C@@H]1C2=O	4.1	29	–	–	4	6.2	inactive	inactive	inactive	inactive	inactive	inactive	inactive	inactive	inactive	inactive	–
COc1cc(O)c2c(c1O)C/C(C(OC(C)=O)OC(C)=O)=C\CC[C@@]1(C)O[C@@H]1C2=O	5.6	2.5	54	–	2.7	5.6	–	–	–	–	–	–	–	–	–	–	–
COc1cc(O)c2c(c1O)C/C(CO)=C\CC[C@@]1(C)O[C@@H]1C2=O	59	42	50	–	40	43	–	–	–	–	–	–	–	–	–	–	–
COC1=CC(=O)C2=C(C[C@]3(C)O[C@@H]3CC[C@@]3(C)O[C@@H]3C2=O)C1=O	20	31	–	–	18	24	inactive	inactive	inactive	inactive	inactive	inactive	inactive	inactive	inactive	inactive	–
COC1=CC(=O)C2=C(C/C(C)=C\CC[C@@]3(C)O[C@@H]3C2=O)C1=O	14	28	64	–	13	27	–	–	–	–	–	–	–	–	–	–	–
COc1cc(O)c2c(c1O)C[C@]1(C)O[C@@H]1CC[C@@]1(C)O[C@@H]1C2=O	9	29	–	–	9.9	17	inactive	inactive	inactive	inactive	inactive	inactive	inactive	inactive	inactive	inactive	> 25
COc1cc(O)c2c(c1O)C/C(C)=C\CC[C@@]1(C)O[C@@H]1C2=O	10	28	–	–	9.7	15	inactive	inactive	inactive	inactive	inactive	inactive	inactive	inactive	inactive	inactive	> 25
